# System: PDE4 from human U-937 cells
# Assay: PDE4 Inhibition Assay
# Type: biochemical
# Details: 1 μM cAMP, [3H]-cAMP, read-out: Potency Class (Inhibitory Concentration) in the PDE4 assay
# Experimental: PDE4 from human U-937 cells was used (see T. J. Torphy, et al., J. Pharmacol. Exp. Ther., 1992, 263, 1195-1205). Test compound at various concentration and/or vehicle was preincubated with 2 μg/ml enzyme in Tris-HCl buffer pH 7.5 for 15 minutes at 25° C. The reaction was initiated by addition of 1 1 μM cAMP and 0.01 1 μM [^3H]-cAMP for another 20 minute incubation period and terminated at 100° C. The resulting [^3H]-AMP was converted to [^3H]-adenosine by addition of snake venom nucleotidase and separated by AG1-X2 resin. An aliquot was removed and counted to determine the amount of [^3H]-adenosine formed. Results were converted to percent inhibition and IC so determined using XLfit from IDBS (ID Business Solutions Ltd., 2 Occam Court, Surrey Research Park, Guildford, Surrey, GU2 7QB UK).
# Representative compounds of the present invention were tested and found to have significant PDE4 inhibition in this assay.
row,IC50 [nM],Compound
1,> 1000,"COc1ccc(N2CCN(C(=O)Cn3ccnn3)[C@@H](Cc3ccccc3)C2)cc1OC1CCCC1 [Compound 334, (S)-1-(2-benzyl-4-(3-(cyclopentyloxy)-4-methoxyphenyl)piperazin-1-yl)-2-(1H-1,2,3-triazol-1-yl)ethanone]"
2,> 1000,"COc1ccc(N2CCN(C(=O)Cc3n[nH]c([N+](=O)[O-])n3)[C@@H](Cc3ccccc3)C2)cc1OC(C)C [Compound 336, (S)-1-(2-benzyl-4-(3-isopropoxy-4-methoxyphenyl)piperazin-1-yl)-2-(5-nitro-1H-1,2,4-triazol-3-yl)ethanone]"
3,< 200,"COc1ccc(N2CCN(C(=O)Cc3nc(N)n[nH]3)[C@@H](Cc3ccccc3)C2)cc1OC(C)C [Compound 337, (S)-2-(3-amino-1H-1,2,4-triazol-5-yl)-1-(2-benzyl-4-(3-isopropoxy-4-methoxyphenyl)piperazin-1-yl)ethanone]"
4,200 to 1000,"COc1ccc(N2CCN(C(=O)Cc3ccccn3)[C@@H](Cc3ccccc3)C2)cc1OC(C)C [Compound 341, (S)-1-(2-benzyl-4-(3-isopropoxy-4-methoxyphenyl)piperazin-1-yl)-2-(pyridin-2-yl)ethanone]"
5,200 to 1000,"COc1ccc(N2CCN(C(=O)Cc3ncccn3)[C@@H](Cc3ccccc3)C2)cc1OC(C)C [Compound 343, (S)-1-(2-benzyl-4-(3-isopropoxy-4-methoxyphenyl)piperazin-1-yl)-2-(pyrimidin-2-yl)ethanone]"
6,< 200,"COc1ccc(N2CCN(C(=O)Cc3n[nH]c(C)n3)[C@@H](Cc3ccccc3)C2)cc1OC(F)F [Compound 346, (S)-1-(2-benzyl-4-(3-(difluoromethoxy)-4-methoxyphenyl)piperazin-1-yl)-2-(5-methyl-1H-1,2,4-triazol-3-yl)ethanone]"
7,> 1000,"COc1ccc(N2CCN(C(=O)Cc3c[nH]cn3)[C@@H](Cc3ccccc3)C2)cc1OC(F)F [Compound 347, (S)-1-(2-benzyl-4-(3-(difluoromethoxy)-4-methoxyphenyl)piperazin-1-yl)-2-(1H-imidazol-4-yl)ethanone]"
8,> 1000,"CCc1nn(C2CCC2)c2cc(N3CCN(C(=O)CN)[C@@H](Cc4ccccc4)C3)ccc12 [Compound 351, (S)-2-amino-1-(2-benzyl-4-(1-cyclobutyl-3-ethyl-1H-indazol-6-yl)piperazin-1-yl)ethanone]"
9,> 1000,"CCc1nn(C2CCC2)c2cc(N3CCN(C(=O)Cc4ccccn4)[C@@H](Cc4ccccc4)C3)ccc12 [Compound 352, (S)-1-(2-benzyl-4-(1-cyclobutyl-3-ethyl-1H-indazol-6-yl)piperazin-1-yl)-2-(pyridin-2-yl)ethanone]"
10,> 1000,"CCc1nn(C2CCC2)c2cc(N3CCN(C(=O)Cc4ncccn4)[C@@H](Cc4ccccc4)C3)ccc12 [Compound 353, (S)-1-(2-benzyl-4-(1-cyclobutyl-3-ethyl-1H-indazol-6-yl)piperazin-1-yl)-2-(pyrimidin-2-yl)ethanone]"
11,< 200,"CCc1nn(C2CCC2)c2cc(N3CCN(C(=O)Cc4n[nH]c(N)n4)[C@@H](Cc4ccccc4)C3)ccc12 [Compound 355, (S)-2-(5-amino-1H-1,2,4-triazol-3-yl)-1-(2-benzyl-4-(1-cyclobutyl-3-ethyl-1H-indazol-6-yl)piperazin-1-yl)ethanone]"
12,> 1000,"COc1ccc(N2CCN(Cc3sc(C)nc3C)[C@@H](Cc3ccccc3)C2)cc1OC1CCCC1 [Compound 359, (S)-5-((2-benzyl-4-(3-(cyclopentyloxy)-4-methoxyphenyl)piperazin-1-yl)methyl)-2,4-dimethylthiazole]"
13,> 1000,"COc1ccc(N2CCN(C(=O)c3ccc(CO)cc3)[C@@H](Cc3ccccc3)C2)cc1OC1CCCC1 [Compound 360, (S)-(2-benzyl-4-(3-(cyclopentyloxy)-4-methoxyphenyl)piperazin-1-yl)(4-(hydroxymethyl)phenyl)methanone]"
14,> 1000,COc1ccc(N2CCN(Cc3cccc(O)c3)[C@@H](Cc3ccccc3)C2)cc1OC1CCCC1 [Compound 361]
15,> 1000,"COc1ccc(N2CCN(Cc3ccc(O)cc3)[C@@H](Cc3ccccc3)C2)cc1OC1CCCC1 [Compound 362, (S)-4-((2-benzyl-4-(3-(cyclopentyloxy)-4-methoxyphenyl)piperazin-1-yl)methyl)phenol]"
16,< 200,"COc1ccc(N2CCN(C(=O)Cc3c[nH]cn3)[C@@H](CC(C)C)C2)cc1OC1CCCC1 [Compound 364, (S)-1-(4-(3-(cyclopentyloxy)-4-methoxyphenyl)-2-isobutylpiperazin-1-yl)-2-(1H-imidazol-4-yl)ethanone]"
17,200 to 1000,"CC(C)C[C@H]1CN(c2ccc(OC(F)F)c(OCC3CC3)c2)CCN1C(=O)Cc1c[nH]cn1 [Compound 365, (S)-1-(4-(3-(cyclopropylmethoxy)-4-(difluoromethoxy)phenyl)-2-isobutylpiperazin-1-yl)-2-(1H-imidazol-4-yl)ethanone]"
18,200 to 1000,"CC(C)C[C@H]1CN(c2ccc(OC(F)F)c(OC3CCCC3)c2)CCN1C(=O)Cc1c[nH]cn1 [Compound 366, (S)-1-(4-(3-(cyclopentyloxy)-4-(difluoromethoxy)phenyl)-2-isobutylpiperazin-1-yl)-2-(1H-imidazol-4-yl)ethanone]"
19,> 1000,"CCOC(=O)CC(=O)N1CCN(c2ccc(OC)c(OC3CCCC3)c2)C[C@@H]1CC(C)C [Compound 368, (S)-ethyl 3-(4-(3-(cyclopentyloxy)-4-methoxyphenyl)-2-isobutylpiperazin-1-yl)-3-oxopropanoate]"
20,< 200,"Cc1nc(CC(=O)N2CCN(c3ccc(OC(F)F)c(OCC4CC4)c3)C[C@@H]2CC(C)C)n[nH]1 [Compound 373, (S)-1-(4-(3-(cyclopropylmethoxy)-4-(difluoromethoxy)phenyl)-2-isobutylpiperazin-1-yl)-2-(5-methyl-1-H-1,2,4-triazol-3-yl)ethanone]"

row,Compound,IC50 [nM]
1,"COc1ccc(N2CCN(C(=O)Cc3nn[nH]n3)[C@@H](Cc3ccccc3)C2)cc1OC1CCC1 [Compound 335, (S)-1-(2-benzyl-4-(3-cyclobutoxy-4-methoxyphenyl)piperazin-1-yl)-2-(2H-tetrazol-5-yl)ethanone]",< 200
2,"COc1ccc(N2CCN(C(=O)Cc3n[nH]c([N+](=O)[O-])n3)[C@@H](Cc3ccccc3)C2)cc1OC1CCC1 [Compound 338, (S)-1-(2-benzyl-4-(3-cyclobutoxy-4-methoxyphenyl)piperazin-1-yl)-2-(5-nitro-1H-1,2,4-triazol-3-yl)ethanone]",200 to 1000
3,"COc1ccc(N2CCN(C(=O)Cc3n[nH]c(N)n3)[C@@H](Cc3ccccc3)C2)cc1OC1CCC1 [Compound 339, (S)-2-(5-amino-1H-1,2,4-triazol-3-yl)-1-(2-benzyl-4-(3-cyclobutoxy-4-methoxyphenyl)piperazin-1-yl)ethanone]",< 200
4,"COc1ccc(N2CCN(C(=O)Cc3ncccn3)[C@@H](Cc3ccccc3)C2)cc1OC1CCC1 [Compound 340, (S)-1-(2-benzyl-4-(3-cyclobutoxy-4-methoxyphenyl)piperazin-1-yl)-2-(pyrimidin-2-yl)ethanone]",< 200
5,"COc1ccc(N2CCN(C(=O)Cc3ccccn3)[C@@H](Cc3ccccc3)C2)cc1OC1CCC1 [Compound 342, (S)-1-(2-benzyl-4-(3-cyclobutoxy-4-methoxyphenyl)piperazin-1-yl)-2-(pyridin-2-yl)ethanone]",< 200
6,"O=C(Cc1c[nH]cn1)N1CCN(c2ccc(OC(F)F)c(OC3CCC3)c2)C[C@@H]1Cc1ccccc1 [Compound 344, (S)-1-(2-benzyl-4-(3-cyclobutoxy-4-(difluoromethoxy)phenyl)piperazin-1-yl)-2-(1H-imidazol-4-yl)ethanone]",< 200
7,"Cc1nc(CC(=O)N2CCN(c3ccc(OC(F)F)c(OC4CCC4)c3)C[C@@H]2Cc2ccccc2)n[nH]1 [Compound 345, (S)-1-(2-benzyl-4-(3-cyclobutoxy-4-(difluoromethoxy)phenyl)piperazin-1-yl)-2-(5-methyl-1H-1,2,4-triazol-3-yl)ethanone]",< 200
8,"CNCCC(=O)N1CCN(c2ccc(OC)c(OC3CCC3)c2)C[C@@H]1Cc1ccccc1 [Compound 348, (S)-1-(2-benzyl-4-(3-cyclobutoxy-4-methoxyphenyl)piperazin-1-yl)-3-(methylamino)propan-1-one]",> 1000
9,"COc1ccc(N2CCN(C(=O)CN)[C@@H](Cc3ccccc3)C2)cc1OC1CCC1 [Compound 349, (S)-2-amino-1-(2-benzyl-4-(3-cyclobutoxy-4-methoxyphenyl)piperazin-1-yl)ethanone]",> 1000
10,"CNCC(=O)N1CCN(c2ccc(OC)c(OC3CCC3)c2)C[C@@H]1Cc1ccccc1 [Compound 350, (S)-1-(2-benzyl-4-(3-cyclobutoxy-4-methoxyphenyl)piperazin-1-yl)-2-(methylamino)ethanone]",> 1000
11,"O=C(Cc1ncccn1)N1CCN(c2ccc(OC(F)F)c(OC3CCC3)c2)C[C@@H]1Cc1ccccc1 [Compound 356, (S)-1-(2-benzyl-4-(3-cyclobutoxy-4-(difluoromethoxy)phenyl)piperazin-1-yl)-2-(pyrimidin-2-yl)ethanone]",200 to 1000
12,"COc1ccc(N2CCN(C(=O)Cc3c[nH]cn3)[C@@H](CC(C)C)C2)cc1OC1CCC1 [Compound 367, (S)-1-(4-(3-cyclobutoxy-4-methoxyphenyl)-2-isobutylpiperazin-1-yl)-2-(1H-imidazol-4-yl)ethanone]",< 200
13,"COc1ccc(N2CCN(C(=O)Cc3cn(C)cn3)[C@@H](CC(C)C)C2)cc1OC1CCC1 [Compound 369, (S)-1-(4-(3-cyclobutoxy-4-methoxyphenyl)-2-isobutylpiperazin-1-yl)-2-(1-methyl-1H-imidazol-4-yl)ethanone]",200 to 1000

# From US9624200B2, “Therapeutic piperazines” (DART NEUROSCIENCE (CAYMAN) LTD., priority 2006, dated 2017)
